{
  "source": "paper PMC7749613",
  "about": "(Journal of Cachexia, Sarcopenia and Muscle, 2020)",
  "key": {"MATE1": {"target": "T1, MATE1 (Homo sapiens, UniProt Q96FL8)", "T1 sequence (Q96FL8 1-570)": "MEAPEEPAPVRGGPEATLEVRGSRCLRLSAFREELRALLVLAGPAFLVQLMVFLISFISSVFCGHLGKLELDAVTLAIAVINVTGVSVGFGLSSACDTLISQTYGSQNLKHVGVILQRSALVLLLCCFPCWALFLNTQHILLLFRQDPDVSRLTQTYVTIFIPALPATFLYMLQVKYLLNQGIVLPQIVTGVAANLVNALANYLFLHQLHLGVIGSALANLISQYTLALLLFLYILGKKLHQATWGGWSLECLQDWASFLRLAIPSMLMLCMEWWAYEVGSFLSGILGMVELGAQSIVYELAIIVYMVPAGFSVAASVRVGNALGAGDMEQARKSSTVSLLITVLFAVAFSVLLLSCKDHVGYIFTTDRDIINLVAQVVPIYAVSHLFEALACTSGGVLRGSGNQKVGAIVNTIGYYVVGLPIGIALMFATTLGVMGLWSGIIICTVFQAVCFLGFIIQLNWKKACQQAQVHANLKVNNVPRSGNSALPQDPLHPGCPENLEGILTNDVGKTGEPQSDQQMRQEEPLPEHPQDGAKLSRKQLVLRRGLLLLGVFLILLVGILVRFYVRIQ", "type": "in vitro ADME", "description": "(§1) However, for these studies, a different incubation buffer was used (145 mM NaCl, 3 mM KCl, 1 mM CaCl2, 0.5 mM MgCl2, 5 mM glucose, and 5 mM HEPES, pH 7.4). ^13 Moreover, intracellular acidification was achieved by preincubating the cells in buffer containing 30 mM ammonium chloride for 20 min at 37°C. […] Radioactivity and protein measurements were performed as described previously."}, "MATE2‐K": {"target": "MATE2‐K (Homo sapiens, UniProt Q86VL8)", "sequence (Q86VL8 1-566 isoform Q86VL8-3)": "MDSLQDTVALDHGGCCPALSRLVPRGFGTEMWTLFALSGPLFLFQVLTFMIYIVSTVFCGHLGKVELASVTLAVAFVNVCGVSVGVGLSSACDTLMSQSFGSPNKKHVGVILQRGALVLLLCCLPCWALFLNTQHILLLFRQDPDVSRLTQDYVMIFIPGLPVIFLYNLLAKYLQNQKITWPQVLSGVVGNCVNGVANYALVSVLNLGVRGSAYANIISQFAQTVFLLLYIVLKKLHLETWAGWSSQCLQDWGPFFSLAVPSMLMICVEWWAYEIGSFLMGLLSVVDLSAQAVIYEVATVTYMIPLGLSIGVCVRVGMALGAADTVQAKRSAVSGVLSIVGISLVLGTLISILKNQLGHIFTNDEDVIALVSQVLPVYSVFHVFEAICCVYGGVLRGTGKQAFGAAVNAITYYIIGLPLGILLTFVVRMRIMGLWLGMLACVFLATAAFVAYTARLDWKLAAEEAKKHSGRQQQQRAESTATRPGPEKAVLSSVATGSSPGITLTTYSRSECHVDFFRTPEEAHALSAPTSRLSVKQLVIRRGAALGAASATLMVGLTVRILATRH", "type": "in vitro ADME", "description": "as §1"}, "OATP1B3": {"target": "T2, OATP1B3 (Homo sapiens, UniProt Q9NPD5)", "T2 construct": "host or cells: HEK293", "T2 sequence (Q9NPD5 1-702)": "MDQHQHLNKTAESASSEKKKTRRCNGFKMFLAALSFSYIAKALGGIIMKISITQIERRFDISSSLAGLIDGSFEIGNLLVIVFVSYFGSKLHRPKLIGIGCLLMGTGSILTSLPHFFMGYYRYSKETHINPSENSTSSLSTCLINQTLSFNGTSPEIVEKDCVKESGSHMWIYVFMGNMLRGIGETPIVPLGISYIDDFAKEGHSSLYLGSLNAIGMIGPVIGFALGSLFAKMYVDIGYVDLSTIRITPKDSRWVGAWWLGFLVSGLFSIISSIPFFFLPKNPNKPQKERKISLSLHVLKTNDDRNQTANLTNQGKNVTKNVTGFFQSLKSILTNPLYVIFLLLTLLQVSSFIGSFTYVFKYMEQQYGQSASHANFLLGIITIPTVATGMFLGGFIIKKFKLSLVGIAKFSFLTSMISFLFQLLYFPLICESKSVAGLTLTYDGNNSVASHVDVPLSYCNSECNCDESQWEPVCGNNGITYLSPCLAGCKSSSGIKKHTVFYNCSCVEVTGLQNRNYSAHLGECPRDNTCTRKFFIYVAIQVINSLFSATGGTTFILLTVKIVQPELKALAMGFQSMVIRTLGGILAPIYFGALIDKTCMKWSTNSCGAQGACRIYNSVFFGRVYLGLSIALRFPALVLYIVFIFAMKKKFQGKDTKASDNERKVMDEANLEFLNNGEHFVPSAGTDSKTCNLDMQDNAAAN", "experiment": "Inhibition of prototypical substrate (CCK‐8) uptake by TCMCB07 in HEK293/OATP1B3 cells", "type": "in vitro ADME", "experimental": "(§2) Cells were then washed three times × 1.0 mL each with pre‐warmed Hank's Balanced Salt Solution (HBSS) buffer. A 0.5 mL aliquot of uptake buffer [HBSS plus 10 mM 4‐(2‐hydroxyethyl)‐1‐piperazineethanesulfonic acid (HEPES), pH 7.4], containing the radiolabelled prototypical substrate and mannitol, was then incubated for various times up to 60 min to determine the optimal incubation time for subsequent experiments (i.e. time of sampling during linear uptake conditions). At the designated times, 1.0 mL of ice‐cold HBSS buffer was added to stop uptake after which the cells were rinsed three times with 1.0 mL with ice‐cold HBSS. Hyamine hydroxide (0.33 mL) was then added to each well to lyse the cells. The cells were transferred into a scintillation vial and mixed with 6.0 mL of cytosine scintillation cocktail. Radioactivity of the solubilized cells was determined with a dual‐channel liquid scintillation counter (Beckman LS 6000; Beckman Coulter Inc., Fullerton, CA) and the protein quantified by a bicinchoninic acid protein assay kit (Pierce Biotechnology; Rockford, IL)."}, "OAT3": {"target": "T3, OAT3 (Homo sapiens, UniProt Q8TCC7)", "T3 construct": "host or cells: HEK293", "T3 sequence (Q8TCC7 1-542)": "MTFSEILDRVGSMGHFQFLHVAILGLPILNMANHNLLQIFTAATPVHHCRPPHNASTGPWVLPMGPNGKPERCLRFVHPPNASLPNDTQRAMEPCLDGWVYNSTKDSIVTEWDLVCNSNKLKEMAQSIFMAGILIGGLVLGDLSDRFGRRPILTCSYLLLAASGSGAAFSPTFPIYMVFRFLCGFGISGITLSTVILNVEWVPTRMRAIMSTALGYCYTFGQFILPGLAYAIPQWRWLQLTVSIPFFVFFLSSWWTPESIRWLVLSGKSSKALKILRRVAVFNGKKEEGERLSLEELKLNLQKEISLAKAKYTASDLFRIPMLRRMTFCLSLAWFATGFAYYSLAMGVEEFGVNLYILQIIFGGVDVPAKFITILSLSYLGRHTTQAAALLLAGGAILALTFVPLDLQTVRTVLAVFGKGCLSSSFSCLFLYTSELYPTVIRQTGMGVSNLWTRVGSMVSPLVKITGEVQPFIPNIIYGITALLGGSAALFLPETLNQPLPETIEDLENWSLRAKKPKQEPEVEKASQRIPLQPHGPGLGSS", "experiment": "Inhibition of prototypical substrate (E3S) uptake by TCMCB07 in HEK293/OAT3 cells", "type": "in vitro ADME", "details": "substrate 1.0 μM [3H]E3S, 5.0 min, up to 1000 μM TCMCB07", "experimental": "as §2"}, "[1]": {"experiment": "In vivo mass balance study (urinary and faecal recovery) in mice", "details": "mouse, in vivo; for dose excreted at 24 h: total radioactivity", "description": "Each mouse was then placed in a metabolic cage for 24 h, along with food and water, and the urine and faeces were collected. The metabolic cage was washed several times, after which 100 μL aliquots of diluted urine and faeces was placed in separate vials. Radioactivity measurements were then performed as described previously. All animal procedures were approved by the Institutional Animal Care and Use Committee at the University of Michigan, Ann Arbor."}},
  "note": "Bridge positions count the residues as written; N and C are the ends. Square brackets hold non-standard residues; d marks the D form. Peptide text beside a SMILES is read from it. d2Nal = N[C@H](Cc1ccc2ccccc2c1)C(=O)O; Nle = CCCC[C@H](N)C(=O)O",
  "data": [
    {"smiles": "CCCC[C@H](NC(C)=O)C(=O)N[C@H]1CC(=O)NCCCC[C@@H](C(=O)N[C@@H](C(=O)N2CCC[C@@H]2C(N)=O)C(C)C)NC(=O)[C@H](Cc2c[nH]c3ccccc23)NC(=O)[C@H](CCCN=C(N)N)NC(=O)[C@@H](Cc2ccc3ccccc3c2)NC(=O)[C@@H]2CCCN2C1=O", "note": "[TCMCB07, Ac‐Nle‐c[Asp‐Pro‐dNal2′‐Arg‐Trp‐Lys]‐dVal‐dPro‐NH2] (Ac-[Nle]DP[d2Nal]RWK[dV][dP]-NH2; lactam 2-7)", "values": [
      {"measurement": "IC50", "setting": "MATE1", "value": "8.7 ± 0.4", "unit": "µM"},
      {"measurement": "IC50", "setting": "MATE2‐K", "value": "20.7 ± 2.1", "unit": "µM"},
      {"measurement": "IC50", "setting": "OATP1B3", "value": "307 ± 39", "unit": "µM"},
      {"measurement": "Slope factor", "setting": "OATP1B3; slope factor n of Eqn 1, OATP1B3, substrate CCK‐8", "value": "1.8 ± 0.3"},
      {"measurement": "IC50", "setting": "OAT3", "value": "could not be determined"},
      {"measurement": "oral absorption", "setting": "[1]", "value": 24.2, "unit": "%"},
      {"measurement": "dose excreted at 24 h", "setting": "[1]; iv, 23.3 mg/kg, % Urinary recovery, intravenous TCMCB07", "value": 14, "unit": "%"},
      {"measurement": "dose excreted at 24 h", "setting": "[1]; iv, faecal (biliary) share of total recovery (faeces/(urine + faeces))", "value": 76, "unit": "%"},
      {"measurement": "dose excreted at 24 h", "setting": "[1]; po, 23.3 mg/kg, % Urinary recovery, oral TCMCB07", "value": 5, "unit": "%"},
      {"measurement": "dose excreted at 24 h", "setting": "[1]; po, faecal share of total recovery (faeces/(urine + faeces))", "value": 95, "unit": "%"}
    ]}
  ]
}
